Results as given in PubChem BioAssay (NCI).
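Growth conditions: 96-well plates. Treatment: test compound, 48 hours, 5 concentrations. Analysis: linear interpolation between bracketing concentrations; unreached endpoints set to highest concentration. TGI: total growth inhibition.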

Legend:
Assay in all cases: inhibition of tumour cell growth, NCI panel, 48 h
CCRF-CEM leukemia = system: CCRF-CEM leukemia
MOLT-4 leukemia = system: MOLT-4 leukemia
NCI-H23 lung = system: NCI-H23 lung
HCT-15 colon = system: HCT-15 colon
SR leukemia = system: SR leukemia
SK-OV-3 ovarian = system: SK-OV-3 ovarian
MALME-3M melanoma = system: MALME-3M melanoma
SW-620 colon = system: SW-620 colon
KM12 colon = system: KM12 colon
U251 CNS = system: U251 CNS
OVCAR-8 ovarian = system: OVCAR-8 ovarian
HCT-116 colon = system: HCT-116 colon
MCF7 breast = system: MCF7 breast
HOP-92 NSCLC = system: HOP-92 NSCLC
NCI/ADR-RES ovarian = system: NCI/ADR-RES ovarian
UACC-257 melanoma = system: UACC-257 melanoma
DU-145 prostate = system: DU-145 prostate
K-562 leukemia = system: K-562 leukemia
PC-3 prostate = system: PC-3 prostate
SNB-75 CNS = system: SNB-75 CNS

Measured: TGI

Cc1c2cccc-2c(OCCO)cc2c3ccccc3n(C)c12
6.13 µM: HOP-92 NSCLC
6.12 µM: SR leukemia
34.6 µM: MOLT-4 leukemia
17.6 µM: UACC-257 melanoma
17 µM: MALME-3M melanoma
12.8 µM: HCT-116 colon
67.3 µM: SW-620 colon
45 µM: HCT-15 colon
10.1 µM: OVCAR-8 ovarian
> 100 µM: NCI-H23 lung | NCI/ADR-RES ovarian
21.4 µM: K-562 leukemia
12.9 µM: KM12 colon
7.53 µM: CCRF-CEM leukemia
11.5 µM: PC-3 prostate
20.6 µM: DU-145 prostate
20.8 µM: MCF7 breast
35.5 µM: SNB-75 CNS
7.34 µM: SK-OV-3 ovarian
5.84 µM: U251 CNS

CC(=O)O[C@H]1CC[C@@]2(C)C(=CC[C@H]3[C@@H]4C/C(=C\c5ccc(N(C)C)cc5)[C@H](OC(C)=O)[C@@]4(C)CC[C@@H]32)C1
19.4 µM: U251 CNS
16.7 µM: PC-3 prostate
29.7 µM: MALME-3M melanoma
26.6 µM: MCF7 breast
31.9 µM: HCT-15 colon
21.4 µM: UACC-257 melanoma
46.4 µM: SW-620 colon
23.4 µM: OVCAR-8 ovarian
25.3 µM: HCT-116 colon
30.9 µM: NCI-H23 lung
35.4 µM: NCI/ADR-RES ovarian
not listed: CCRF-CEM leukemia | HOP-92 NSCLC
> 100 µM: all other assays above

NCC(=O)Nc1ccc(S(=O)(=O)O)c2cc(S(=O)(=O)O)cc(S(=O)(=O)O)c12
> 100 µM: all assays above

O=C(NNC(=O)c1ccccc1O)c1cccc(Br)c1
> 60.3 µM: MCF7 breast
> 81 µM: MOLT-4 leukemia
not listed: CCRF-CEM leukemia | HOP-92 NSCLC
> 100 µM: all other assays above

CC(=O)OCC1OC(n2c(C)cc(C)c(C#N)c2=S)C(OC(C)=O)C(OC(C)=O)C1OC(C)=O (configuration not stated)
not listed: SK-OV-3 ovarian | SW-620 colon
> 100 µM: all other assays above

COC1(OC)CCCc2c1no[n+]2[O-]
not listed: HOP-92 NSCLC
> 100 µM: all other assays above

O=C(N(O)c1ccccc1Cl)C(O)(c1ccccc1)c1ccccc1
71.5 µM: K-562 leukemia
41 µM: CCRF-CEM leukemia
49.9 µM: SR leukemia
not listed: SNB-75 CNS
> 100 µM: all other assays above

CC(=O)NC1=N/C(=C\c2ccc(Cl)cc2)C(=O)N1/C=C1\C(=O)Oc2ccccc2C1=O
not listed: HOP-92 NSCLC
> 100 µM: all other assays above

COc1ccc(-c2cc3ccccc3oc2=O)cc1OC
71 µM: SK-OV-3 ovarian
not listed: PC-3 prostate
> 100 µM: all other assays above

CN1C(=O)C2CCCC(=O)N2c2cccnc21 (configuration not stated)
not listed: SK-OV-3 ovarian | HOP-92 NSCLC | PC-3 prostate | SNB-75 CNS
> 100 µM: all other assays above

O=c1c2ncn(C3CCCO3)c2n(-c2ccccc2)c(=S)n1-c1ccccc1 (configuration not stated)
not listed: MALME-3M melanoma | HOP-92 NSCLC
> 100 µM: all other assays above

Cn1c2ccccc2c(=O)c2cccc(C(=O)NC(CS)C(=O)O)c21 (configuration not stated)
not listed: CCRF-CEM leukemia | HOP-92 NSCLC
> 100 µM: all other assays above
